“Also recorded” adds a separate entry of the source.
Experiments:
MKN-45 cells = assay: Cell proliferation assay, MKN-45; format: cell-based, Human; conditions: Crizotinib 40 nM, positive control; 4 days
Protocol: (§1) Human gastric cancer cell line MKN-45 cells were from the Chinese Academy of Medical Sciences, Beijing, China. Human gastric cancer cell line MKN-28 cells, the human glioma cell line U87 cells, and MDCK cells were obtained from the American Type Culture Collection (ATCC). The MKN-45 and MKN-28 cells were grown under a humidified atmosphere of 5% CO2 at 37 °C in RPMI 1640 medium (Biological Industries, Israel), supplemented with 10% fetal bovine serum (FBS, Biological Industries, Israel), 2 mmol/L L-glutamine (Gibco, Life Technologies, Grand Island, NY, USA), 100 U/mL penicillin, and 100 μg/mL streptomycin (Invitrogen, Carlsbad, CA, USA). MDCK and U87 cells were cultured under a humidified atmosphere of 5% CO2 at 37 °C in Dulbecco’s modified Eagle’s medium (DMEM) (Gibco, Life Technologies, Grand Island, NY, USA), supplemented with 10% FBS, 2 mmol/L L-glutamine (Gibco, Life Technologies, Grand Island, NY, USA), 100 U/mL penicillin, and 100 μg/mL streptomycin (Invitrogen, Carlsbad, CA, USA).
(§2) As described in the literature, MKN-45, MKN-28, and U87 cells were seeded into 48-well culture plates (6500 cells/well) and cultured overnight. […] After 4 days, the cells were trypsinized and counted by a cell counter. […]

MKN-28 cells = assay: Cell proliferation assay, MKN-28; format: cell-based, Human; conditions: Crizotinib 40 nM, positive control; 4 days
Protocol: as §1, §2

U87 cells = assay: Cell proliferation assay, U87 (HGF-stimulated); format: cell-based, human; conditions: Crizotinib 40 nM, positive control; 20 ng/mL HGF; 4 days
Protocol: as §1, §2

[1] = test system: c-Met-negative MKN-28 cells; assay: Flow cytometry binding to c-Met-negative MKN-28 cells; parameters: species or system Human; conditions: 1 μM, 1 h, room temperature
Protocol: as §1
(§3) A flow cytometry assay was used to evaluate the conjugation and affinity of the newly designed peptides CM 7, CM 14, or FITC alone to c-Met-positive MKN-45 cells and c-Met-negative MKN-28 cells. Briefly, MKN-45 and MKN-28 cells were detached by 0.25% trypsin and the final cell concentration was adjusted to 3 × 10^6 cells/mL. […]

[2] = test system: c-Met-positive MKN-45 cells; assay: Flow cytometry binding to c-Met-positive MKN-45 cells; parameters: species or system Human; conditions: 1 μM, 1 h, room temperature
Protocol: as §1, §3

[3] = test system: c-Met-negative MKN-28 cells; assay: Confocal microscope imaging of binding to MKN-28 cells; parameters: species or system Human; conditions: MKN-28 cells (fixed); 1 μM, 1 h, room temperature
Protocol: as §1
(§4) MKN-45 and MKN-28 cells were plated separately in a glass-bottom cell culture dish (NEST) with serum-free media overnight. The next day, cells were fixed with 4% paraformaldehyde for 20 min at room temperature. […]

[4] = test system: c-Met-positive MKN-45 cells; assay: Confocal microscope imaging of binding to MKN-45 cells; parameters: species or system Human; conditions: MKN-45 cells (fixed); 1 μM, 1 h, room temperature
Protocol: as §1, §4

| SMILES | Inhibition of cell proliferation (MKN-45 cells) | Inhibition of cell proliferation (MKN-28 cells) | Inhibition of cell proliferation (U87 cells) | Binding by flow cytometry (in words) [1] | Binding by flow cytometry (in words) [2] | Binding / fluorescent signal by confocal imaging [3] | Binding / fluorescent signal by confocal imaging [4] |
| --- | --- | --- | --- | --- | --- | --- | --- |
| C[C@@H](Oc1cc(-c2cnn(C3CCNCC3)c2)cnc1N)c1c(Cl)ccc(F)c1Cl [Crizotinib, reference compound] | significantly inhibit | significantly inhibit | significantly inhibit |  |  |  |  |
| O=C1OC2(c3ccc(O)cc3Oc3cc(O)ccc32)c2ccc(N=C=S)cc21 [FITC, Fluorescein isothiocyanate isomer] |  |  |  | hardly combined | hardly combined | could not bind to MKN-45 or MKN-28 cells; also recorded: did not show any fluorescent signals | could not bind to MKN-45 or MKN-28 cells |
